Measurements published in patent US9593108B2, “Compounds and methods for antiviral treatment” (PTC Therapeutics, Inc., priority 2009, dated 2017).

What was measured:
[1] = test system: HCV replicon RNA (GenBank Accession No. AJ242654); assay: HCV Replicon Assay (replicon RNA reduction and/or Fluc reporter signal); type: cell-based, Hepatitis C virus; settings: Hepatitis C virus, 72 h, replicon-containing cells cultured with test compound for up to 3 days
Outline: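 Bicistronic replicon-containing cells cultured with compound for up to 3 days, with interferon as positive control. Inhibition quantified by replicon RNA reduction and/or Fluc reporter signal; IC50 values generally derived from replicon RNA reduction.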

Compound | melting point | IC50 [1]
CC(C)S(=O)(=O)Nc1ccc(-c2c(C#N)c3cc(C(F)F)cnc3n2C2CCC2)cc1 [Cpd 459, N-{4-[3-cyano-1-cyclobutyl-5-(difluoromethyl)-1H-pyrrolo[2,3-b]pyridin-2-yl]phenyl}propane-2-sulfonamide] | 179 to 180 °C | < 0.5 µM
N#Cc1c(-c2ccc(NS(=O)(=O)C3CC3)cc2)n(C2CCC2)c2ncc(C(F)F)cc12 [Cpd 460, N-{4-[3-cyano-1-cyclobutyl-5-(difluoromethyl)-1H-pyrrolo[2,3-b]pyridin-2-yl]phenyl}cyclopropanesulfonamide] | 193 to 195 °C | < 0.5 µM
C[C@H](NS(=O)(=O)c1ccc(-c2c(C#N)c3cc(F)cnc3n2-c2cc(F)ccn2)nc1)C(F)(F)F [Cpd 461, 6-[3-cyano-5-fluoro-1-(4-fluoropyridin-2-yl)-1H-pyrrolo[2,3-b]pyridin-2-yl]-N-[(2S)-1,1,1-trifluoropropan-2-yl]pyridine-3-sulfonamide] | 186 to 188 °C | < 0.5 µM
C[C@H](NS(=O)(=O)c1ccc(-c2c(C#N)c3cc(F)cnc3n2-c2ncc(F)cn2)nc1)C(F)(F)F [Cpd 462, 6-[3-cyano-5-fluoro-1-(5-fluoropyrimidin-2-yl)-1H-pyrrolo[2,3-b]pyridin-2-yl]-N-[(2S)-1,1,1-trifluoropropan-2-yl]pyridine-3-sulfonamide] | 180 to 182 °C | < 0.5 µM
Cc1cnc2c(C#N)c(-c3ccc(S(=O)(=O)N[C@@H](C)C(F)(F)F)cn3)n(-c3cnccn3)c2c1 [Cpd 463, 6-[3-cyano-6-methyl-1-(pyrazin-2-yl)-1H-pyrrolo[3,2-b]pyridin-2-yl]-N-[(2S)-1,1,1-trifluoropropan-2-yl]pyridine-3-sulfonamide] | 288 to 289 °C | < 0.5 µM
Cc1cnc2c(C#N)c(-c3ccc(S(=O)(=O)N[C@@H](C)C(F)(F)F)cn3)n(-c3cncnc3)c2c1 [Cpd 464, 6-[3-cyano-6-methyl-1-(pyrimidin-5-yl)-1H-pyrrolo[3,2-b]pyridin-2-yl]-N-[(2S)-1,1,1-trifluoropropan-2-yl]pyridine-3-sulfonamide] | 229 to 230 °C | 2 to 5 µM
Cc1cnc2c(C#N)c(-c3ccc(S(=O)(=O)N[C@@H](C)C(F)(F)F)cn3)n(-c3ccccn3)c2c1 [Cpd 465, 6-[3-cyano-6-methyl-1-(pyridin-2-yl)-1H-pyrrolo[3,2-b]pyridin-2-yl]-N-[(2S)-1,1,1-trifluoropropan-2-yl]pyridine-3-sulfonamide] | 242 to 244 °C | < 0.5 µM
Cc1cnc2c(C#N)c(-c3ccc(S(=O)(=O)N[C@@H](C)C(F)(F)F)cn3)n(-c3cccnc3)c2c1 [Cpd 466, 6-[3-cyano-6-methyl-1-(pyridin-3-yl)-1H-pyrrolo[3,2-b]pyridin-2-yl]-N-[(2S)-1,1,1-trifluoropropan-2-yl]pyridine-3-sulfonamide] | 278 to 279 °C | < 0.5 µM
Cc1cnc2c(C#N)c(-c3ccc(S(=O)(=O)N[C@@H](C)C(F)(F)F)cn3)n(-c3ccc(F)cn3)c2c1 [Cpd 467, 6-[3-cyano-1-(5-fluoropyridin-2-yl)-6-methyl-1H-pyrrolo[3,2-b]pyridin-2-yl]-N-[(2S)-1,1,1-trifluoropropan-2-yl]pyridine-3-sulfonamide] | 263 to 265 °C | < 0.5 µM
Cc1cnc2c(C#N)c(-c3ccc(S(=O)(=O)N[C@@H](C)C(F)(F)F)cn3)n(-c3cscn3)c2c1 [Cpd 468, 6-[3-cyano-6-methyl-1-(1,3-thiazol-4-yl)-1H-pyrrolo[3,2-b]pyridin-2-yl]-N-[(2S)-1,1,1-trifluoropropan-2-yl]pyridine-3-sulfonamide] | 244 to 245 °C | < 0.5 µM
C[C@H](NS(=O)(=O)c1ccc(-c2c(C(N)=O)c3cc(C(F)F)cnc3n2C2CCC2)nc1)C(F)(F)F [Cpd 469, 1-cyclobutyl-5-(difluoromethyl)-2-(5-{[(2S)-1,1,1-trifluoropropan-2-yl]sulfamoyl}pyridin-2-yl)-1H-pyrrolo[2,3-b]pyridine-3-carboxamide] | 206 to 208 °C | < 0.5 µM
C[C@H](NS(=O)(=O)c1cnc(-c2c(C(N)=O)c3cc(C(F)F)cnc3n2C2CCC2)nc1)C(F)(F)F [Cpd 470, 1-cyclobutyl-5-(difluoromethyl)-2-(5-{[(2S)-1,1,1-trifluoropropan-2-yl]sulfamoyl}pyrimidin-2-yl)-1H-pyrrolo[2,3-b]pyridine-3-carboxamide] | 199 to 201 °C | < 0.5 µM
CC(C)(NS(=O)(=O)c1ccc(-c2c(C(N)=O)c3cc(C(F)F)cnc3n2C2CCC2)nc1)C(F)(F)F [Cpd 471, 1-cyclobutyl-5-(difluoromethyl)-2-{5-[(1,1,1-trifluoro-2-methylpropan-2-yl)sulfamoyl]pyridin-2-yl}-1H-pyrrolo[2,3-b]pyridine-3-carboxamide] | 205 to 207 °C | < 0.5 µM
NC(=O)c1c(-c2ccc(S(=O)(=O)NC3(C(F)(F)F)CC3)cn2)n(C2CCC2)c2ncc(C(F)F)cc12 [Cpd 472, 1-cyclobutyl-5-(difluoromethyl)-2-(5-{[1-(trifluoromethyl)cyclopropyl]sulfamoyl}pyridin-2-yl)-1H-pyrrolo[2,3-b]pyridine-3-carboxamide] | 210 to 212 °C | < 0.5 µM
CCc1cnc2c(c1)c(C#N)c(-c1ccc(S(=O)(=O)N[C@@H](C)C(F)(F)F)cn1)n2-c1ncc(F)cn1 [Cpd 473, 6-[3-cyano-5-ethyl-1-(5-fluoropyrimidin-2-yl)-1H-pyrrolo[2,3-b]pyridin-2-yl]-N-[(2S)-1,1,1-trifluoropropan-2-yl]pyridine-3-sulfonamide] | 175 to 177 °C | < 0.5 µM
CCc1cnc2c(c1)c(C#N)c(-c1ccc(S(=O)(=O)N[C@@H](C)C(F)(F)F)cn1)n2-c1ccc(F)cn1 [Cpd 474, 6-[3-cyano-5-ethyl-1-(5-fluoropyridin-2-yl)-1H-pyrrolo[2,3-b]pyridin-2-yl]-N-[(2S)-1,1,1-trifluoropropan-2-yl]pyridine-3-sulfonamide] | 175 to 177 °C | < 0.5 µM
Cc1cnc2c(C#N)c(-c3ccc(S(=O)(=O)N[C@@H](C)C(F)(F)F)cn3)n(-c3ncccn3)c2c1 [Cpd 475, 6-[3-cyano-6-methyl-1-(pyrimidin-2-yl)-1H-pyrrolo[3,2-b]pyridin-2-yl]-N-[(2S)-1,1,1-trifluoropropan-2-yl]pyridine-3-sulfonamide] | 226 to 228 °C | < 0.5 µM
Cc1cnc2c(C#N)c(-c3ccc(S(=O)(=O)N[C@@H](C)C(F)(F)F)cn3)n(-c3ccccc3)c2c1 [Cpd 476, 6-(3-cyano-6-methyl-1-phenyl-1H-pyrrolo[3,2-b]pyridin-2-yl)-N-[(2S)-1,1,1-trifluoropropan-2-yl]pyridine-3-sulfonamide] | 245 to 247 °C | < 0.5 µM
Cc1cnc2c(C#N)c(-c3ccc(S(=O)(=O)N[C@@H](C)C(F)(F)F)cn3)n(-c3nccs3)c2c1 [Cpd 477, 6-[3-cyano-6-methyl-1-(1,3-thiazol-2-yl)-1H-pyrrolo[3,2-b]pyridin-2-yl]-N-[(2S)-1,1,1-trifluoropropan-2-yl]pyridine-3-sulfonamide] | 230 to 232 °C | < 0.5 µM
